According to patent US20010000783A1, “Treatment of interstitial cystitis” (priority 1998, published 2001):

Test system: Normal human bladder epithelial cells
Experiment: Inhibition of APF activity by recombinant growth factors, low molecular weight urine fractions, 3H-thymidine incorporation
Type: cell-based
Conditions: simultaneous exposure to recombinant growth factor and <3 kDa urine fraction, 48 hours; HB-EGF 0-100 ng/ml (effect evident at 10 ng/ml), EGF 0-100 ng/ml, IGF-1 0-300 pg/ml; FIGS. 6A-6C
Procedure: Primary normal adult human bladder epithelial (HBE) cells were cultured by the method described above in Part II. On the third day of incubation, cell medium was replaced by serum free MEM containing the less than 3 kDa fraction (i.e, containing the APF) of urine specimens from IC patients or controls (i.e., that part containing the anti-proliferative factor or APF described in related application Ser. No. 08/944,202), or HPLC-purified APF or its mock control along with varying concentrations of recombinant HB-EGF (0-100 ng/ml), EGF (0-100 ng/ml), or IGF-1 (0-300 pg/ml) [all from R & D Systems, Minneapolis, Minn.] diluted in phosphate buffered saline (1:1:1). Urine was prepared by the method described above in Part II and HPLC purified APF was prepared as described above. Following an additional 48 hours of incubation at 37 degrees C. in a 5% CO2 atmosphere, cell proliferation was assessed by ^3H-thymidine incorporation according to the published methods^38.
Normal human bladder epithelial cells were exposed simultaneously to recombinant human growth factors (HB-EGF, EGF, or IGF1) and low molecular weight fractions from IC patients or control urine specimens. Cell proliferation was determined 48 hours later by 3H-thymidine incorporation (FIGS. 6A-6C). Bar values indicate the mean of 5-8 determinations. Vertical lines indicate the standard error of the mean.

Row | Substance | inhibition of APF antiproliferative activity
1 | IGF1: recombinant insulin-like growth factor 1 from R & D Systems | unable to completely inhibit APF activity
2 | epidermal growth factor (NSDSECPLSHDGYCLHDGVCMYIEALDKYACNCVVGYIGERCQYRDLKWWELR; UniProt P01133 971-1023, looked up) [EGF, recombinant epidermal growth factor from R & D Systems] | unable to completely inhibit APF activity
